The text below walks through data of patent publication US9340548B2, “Substituted pyrazolo[3,4-a]carbazoles as hepatitis C inhibitors” (priority 2011, dated 2016).

By EC50 is commonly meant the midpoint of the concentration-response curve.

In the assay the test system is HCVpp (HCV E1/E2, isolate Con1) entry into Hep3B2.1-7 cells. As to the kind of experiment: microbe, parasite or virus in culture. Format: cell-based. As to conditions: Hepatitis C virus, 72 h, read-out: EC50 (nM) Example 46.
`CC1(C)Cc2c[nH]nc2-c2[nH]c3ccc(C(=O)N[C@H]4CCOC4)cc3c21` [Compound 1006]: the EC50 worked out at 112 nM.
Under `CC1(C)Cc2c[nH]nc2-c2[nH]c3ccc(C(N)=O)cc3c21` [Compound 1011] stands 72 nM; under `CC1(C)Cc2c[nH]nc2-c2[nH]c3ccc(C(=O)NC4CCN(C(=O)c5ccccn5)C4)cc3c21` (centres unmarked) [Compound 1015], 12 nM; under `CC(C)NC(=O)N1CCC(NC(=O)c2ccc3[nH]c4c(c3c2)C(C)(C)Cc2c[nH]nc2-4)C1` (centres unmarked) [Compound 1118], 19 nM.
As to `CC1(C)Cc2c[nH]nc2-c2[nH]c3ccc(C(=O)Nc4cccnc4)cc3c21` [Compound 1126], the 50% effective concentration (EC50) came to 65 nM.
`CC1(C)Cn2cnnc2-c2[nH]c3ccc(C(=O)NCc4ccccn4)cc3c21` [Compound 2001]: the EC50 amounted to 1400 nM.
Consider `Cn1cc2c(n1)-c1[nH]c3ccc(C(=O)NCc4ccccn4)cc3c1C(C)(C)C2` [Compound 2004], for which the EC50 amounted to 109 nM.
Turning to `CC1(C)Cn2ccnc2-c2[nH]c3ccc(C(=O)NC4CCOCC4)cc3c21` [Compound 2012], the EC50 worked out at 230 nM.
`CC1(C)Cc2sc(N)nc2-c2[nH]c3ccc(C(=O)NC4CCS(=O)(=O)C4)cc3c21` (centres unmarked) [Compound 2014]: the EC50 amounted to 280 nM.
Under `Cc1nc2c(s1)CC(C)(C)c1c-2[nH]c2ccc(C(=O)NC3CCS(=O)(=O)C3)cc12` (centres unmarked) [Compound 2018] stands 320 nM; under `COC(=O)c1ccc2[nH]c3c(c2c1)C(C)(C)Cc1c[nH]nc1-3` [Compound 2020], 97 nM; under `CC1(C)Cc2cnc(N)nc2-c2[nH]c3ccc(C(=O)NCc4ccccn4)cc3c21` [Compound 2022], 1350 nM.
Under `Cc1ncc2c(n1)-c1[nH]c3ccc(C(=O)NC4CCS(=O)(=O)C4)cc3c1C(C)(C)C2` (centres unmarked) [Compound 2028] stands 885 nM.
As for `CC(C)S(=O)(=O)CCNC(=O)c1ccc2[nH]c3c(c2c1)C1(CCC1)Cc1c[nH]nc1-3` [Compound 3011], the EC50 was 2.8 nM.
For the compound `O=C(NC1CCN(C(=O)c2ccccn2)C1)c1ccc2[nH]c3c(c2c1)C1(CCC1)Cc1c[nH]nc1-3` (centres unmarked) [Compound 3018], the EC50 stood at 6.7 nM.
Under `CC1CC2(Cc3c[nH]nc3-c3[nH]c4ccc(C(=O)NCc5ccccn5)cc4c32)C1` (centres unmarked) [Compound 4004] stands 54 nM; under `CC1(C)c2c[nH]nc2-c2[nH]c3ccc(C(=O)NC4CCN(C(=O)c5ncn[nH]5)C4)cc3c21` (centres unmarked) [Compound 5002], 59 nM.
